The source of these data is US10548883B2, “Benzotriazole-derived α and β-unsaturated amide compound used as TGF-β RI inhibitor” (GENFLEET THERAPEUTICS (SHANGHAI) INC., priority 2016, dated 2020).

In assay [1] the test system is NIH/3T3 mouse embryonic cells. Nature of the assay: Test of proliferation inhibition on NIH/3T3 mouse embryonic cells (CellTiter-Glo, with TGF-β1). The class given is cell-based. The note with it: NIH3T3, 0.2 ng/mL TGF-β1, 72 h. The method, then:
Promega's Luminescent Cell Viability Assay (CellTiter-Glo® method, i.e. ATP fluorescence activity detection and analysis), the compound is added to the cell culture plate for incubation. A substrate buffer for detecting intracellular ATP content was added on the day of detection. Slightly shake and centrifuge at 1000 rpm for 1 min. Tested after standing for 10 min. The assay plate was analyzed using Envision multifunctional enzyme marker of PerkinElmer, Inc., and the analysis mode was fluorescence detection, and the data was expressed by the reading of chemiluminescence signal at 400-700 nm.
i) When the cell growth coverage is about 70%, the cell layer was washed with 10 mL of Duchenne phosphate buffer (D-PBS) which is calcium- and magnesium-free, then 2 mL of 0.25% trypsin-EDTA digest was added. The cell culture flask was placed in a CO2 carbon dioxide incubator at 37° C. and incubated for 3-5 min, then 8 mL of complete culture medium containing 2% FBS DMEM cells was added, and the cells were puffed evenly into single cell and counted by Vi-cell cytometer, and NIH/3T3 cell suspension was diluted to 0.375×10^5/mL cells.
ii) 50 μL of 2% DMEM-containing medium was added around the 384-well cell culture plate, then 40 μL of cell suspension was added to the remaining wells to 1500 cells per well. The distribution of the cells was observed under a microscope, and the cell plates were placed in a cell culture incubator with 5% CO2 at 37° C.
iii) Dilution of the compound refers to the preparation of the compound.
iv) A mixture of 2% fetal bovine serum containing 1 ng/mL TGF-β1 in DMEM medium was added manually to the compound intermediate plate, 20 μL per well.
v) The compound intermediate plate was shook slightly for 10 sec at 1000 rpm/min and centrifuge for 10 sec.
vi) 10 uL of the mixed liquid from steps 4 and 5 of each well was transferred to the inoculated cell plate to a final volume of 50 μL by using a Bravo liquid workstation, and the final concentration of TGF-β1 was diluted to 0.2 ng/mL, and centrifuged for 10 sec at 1000 rpm/min. The plates were placed in an incubator with 5% carbon dioxide at 37° C., 5% carbon dioxide for 72 h. The final concentration of the compound is: (unit: μM)
vii) The cell plate containing the compound was cultured in a cell incubator with 5% CO2 at 37° C. for 3 days.
viii) After that, 25 μL of ATP fluorescence activity detection solution was added to each well of the cell plate, then shook gently for about 1 min and centrifuged at 500 rpm/min for about 30 sec, and the reading was performed in an Envision instrument after standing at room temperature for 10 min in the dark.
For orientation: In ATP-based viability assays light output follows the ATP content of the culture.

Assay [2] deals with T1, TGF-βRI (Homo sapiens, UniProt P36897).
T1 sequence (P36897 34-503): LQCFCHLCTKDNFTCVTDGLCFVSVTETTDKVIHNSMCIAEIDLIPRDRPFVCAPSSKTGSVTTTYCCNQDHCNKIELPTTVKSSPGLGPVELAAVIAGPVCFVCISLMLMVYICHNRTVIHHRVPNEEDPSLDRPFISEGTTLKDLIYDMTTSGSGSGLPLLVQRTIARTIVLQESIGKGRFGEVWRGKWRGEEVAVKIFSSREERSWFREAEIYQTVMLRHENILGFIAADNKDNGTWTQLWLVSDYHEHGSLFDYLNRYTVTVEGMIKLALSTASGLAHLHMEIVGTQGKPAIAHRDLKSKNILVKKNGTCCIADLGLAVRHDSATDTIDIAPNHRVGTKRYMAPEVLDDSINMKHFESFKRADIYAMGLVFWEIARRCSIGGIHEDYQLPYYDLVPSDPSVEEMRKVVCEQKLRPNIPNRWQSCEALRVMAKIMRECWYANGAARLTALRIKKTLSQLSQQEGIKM
Kind of assay: Test of inhibitory activity of TGFβ-RI in vitro. The note with it: 10 μM ATP. It counts as biochemical. The method, then:
i) Test compound: the IC50 was determined by diluting into 10 gradient points with each gradient by three-fold dilution and with a starting concentration of 5 μM.
ii) The IC50 of reference compound LDN193189 was determined by diluting into 10 gradient points with each gradient by three-fold dilution and with a starting concentration of 20 μM.
iii) The reaction system contains 10 μM ATP.
iv) Calculate the IC50 value by curve fitting when the percentage of enzyme activity (compared to the solvent group) is below 65% at the highest concentration of the sample.

For `CNC(=O)/C=C/c1c(-c2c(-c3cccc(C)n3)nn3c2CCC3)ccc2ncnn12` [Embodiment 2], the IC50 (usually the concentration that inhibits the measured activity by half) was in the range of 2000 to 5000 nM in assay [1] and 50 to 500 nM in assay [2]. Consider `CCNC(=O)/C=C/c1c(-c2c(-c3cccc(C)n3)nn3c2CCC3)ccc2ncnn12` [Embodiment 3], for which the IC50 fell in the range of 2000 to 5000 nM in assay [1] and 50 to 500 nM in assay [2]. For `Cc1cccc(-c2nn3c(c2-c2ccc4ncnn4c2/C=C/C(=O)NC2CC2)CCC3)n1` [Embodiment 4] the same measures were 2000 to 5000 nM and 50 to 500 nM. `Cc1cccc(-c2nn3c(c2-c2ccc4ncnn4c2/C=C/C(=O)NCCO)CCC3)n1` [Embodiment 5]: the IC50 was more than 5000 nM in assay [1] and 50 to 500 nM in assay [2].

Regarding `Cc1cccc(-c2nn(Cc3cccc(C#N)c3)cc2-c2ccc3ncnn3c2/C=C/C(N)=O)n1` [Embodiment 6], the half-inhibitory concentration (IC50) in assay [1] is 500 to 2000 nM; in assay [2], 50 to 500 nM. The molecule `Cc1cccc(-c2nn(C3CCCC3)cc2-c2ccc3ncnn3c2/C=C/C(N)=O)n1` [Embodiment 7] showed an IC50 in assay [2] of 50 to 500 nM. With `Cc1cccc(-c2nn(C(C)C)cc2-c2ccc3ncnn3c2/C=C/C(N)=O)n1` [Embodiment 8], the half-maximal inhibitory concentration (IC50) was in the range of 2000 to 5000 nM in assay [1] and 50 to 500 nM in assay [2].

In the case of `Cc1cccc(-c2nn(Cc3cccc(C(F)F)c3)cc2-c2ccc3ncnn3c2/C=C/C(N)=O)n1` [Embodiment 9], the IC50 in assay [1] fell in the range of 500 to 2000 nM; in assay [2], 50 to 500 nM.

On to `CCc1cccc(-c2nn3c(c2-c2ccc4ncnn4c2/C=C/C(N)=O)CCC3)n1` [Embodiment 10], for which the IC50 is 2000 to 5000 nM in assay [1] and 50 to 500 nM in assay [2]. `Cc1cc(C)nc(-c2nn3c(c2-c2ccc4ncnn4c2/C=C/C(N)=O)CCC3)c1` [Embodiment 11] gave an IC50 in assay [2] of more than 500 nM.

In assay [2], `Cc1nc(-c2nn3c(c2-c2ccc4ncnn4c2/C=C/C(N)=O)CCC3)ccc1Cl` [Embodiment 12] yielded an IC50 of more than 500 nM.
